Data as given in US20140341916A1, “THERAPEUTIC COMBINATIONS AND METHODS OF TREATING MELANOMA” (Genentech, Inc., priority 2011, published 2014).

Experiments:
ETBR transcript [1] = experiment: ETBR transcript level in melanoma cell lines, Taqman, normalized to RPL19; format: cell-based, human; conditions: A2058 cells, 24 h
Protocol: (§1) Melanoma cell lines UACC-257X2.2, A2058, COLO 829, IPC-298 (ATCC) were treated with a BRAF inhibitor drug (“BRAFi”), specifically RG7204 at varying concentrations by adding the appropriate drug volume to cells in culture for 24 h on four-well dishes.
(§2) To determine the effect of BRAFi on ETBR and control ribosomal protein L19 (RPL19) transcript levels, the following experiments were performed. Cells treated with RG7204 for 24 h were harvested from plates by scraping and processed for total RNA using Qiashredder and RNeasy mini kits (79654, 74104 from Qiagen, Valencia, Calif.). Taqman assays were set up using reagents from Applied Biosystems (ABI, Foster City, Calif.) and assayed using 7500 Real Time PCR machine and software from ABI. Primer-probe sets were designed with primers flanking a fluorogenic probe dual labeled with Reporter dye FAM and quencher dye TAMRA.
(§3) Melanoma cell lines A2058, COLO 829, SK23-MEL and IPC-298 (ATCC) were treated with a MEK inhibitor drug (“MEKi-973” or “MEKi-623”), at varying concentrations (0 μM, 0.01 μM, 0.1 μM or 1 μM) by adding the appropriate drug volume to cells in culture for 24 h on four-well dishes.
as §2, with “MEKi” for “BRAFi”, “ETBR” for “ETBR and control ribosomal protein L19 (RPL19)”, “performed as described above in Example 3.” for “performed.”, “either MEKi-973” for “RG7204”

ETBR total protein = ETBR total protein in melanoma cell lines, Western blot; format: cell-based, human; conditions: 24 h
Protocol: as §1
To test whether the increase in ETBR transcripts due to BRAFi treatment also results in any changes in ETBR total protein levels, Western blot experiments were performed on the same cell lines treated with BRAFi RG7204 as described above. For Western blotting, the following reagents were used: for detection of proteins: an anti-ETBR in-house generated monoclonal antibody 1H1.8.5, anti-Phospho-p44/42 MAPK (Erk1/2) (Thr202/Tyr204) antibody (9101, Cell Signaling Technology), anti-p44/42 MAPK (Erk1/2) antibody (9102, Cell Signaling Technology) and as controls, a rabbit polyclonal anti-GAPDH (glyceraldehyde-3-phosphate dehydrogenase) antibody (PA1-987; Affinity Bioreagents) and mouse monoclonal anti-β-Tubulin antibody (556321, BD Pharmingen). The results for UACC-257X2.2 are shown in FIG. 4B, the results for A2058 are shown in FIG. 8B, the results for COLO 829 are shown in FIG. 6B and the results for IPC-298 are shown in FIG. 10.
as §3
To test whether the increase in ETBR transcripts due to MEKi treatment also results in any changes in ETBR total protein levels, Western blot experiments were performed on cell lines COLO829 (BRAF^V600E), A2058 (BRAF^V600E), SK23-MEL (BRAF^WT/RAS^WT), or IPC-298 (BRAF^WT/RAS^[…]) which were treated with MEKi-973 as described above. For Western blotting, the following reagents were used: for detection of proteins: an anti-ETBR in-house generated monoclonal antibody 1H1.8.5, anti-Phospho-p44/42 MAPK (Erk1/2) (Thr202/Tyr204) antibody (9101, Cell Signaling Technology), anti-p44/42 MAPK (Erk1/2) antibody (9102, Cell Signaling Technology) and as controls, a rabbit polyclonal anti-GAPDH (glyceraldehyde-3-phosphate dehydrogenase) antibody (PA1-987; Affinity Bioreagents) and mouse monoclonal anti-β-Tubulin antibody (556321, BD Pharmingen). The results for A2058 are shown in FIG. 15A treated with MEKi-623 and 15B treated with MEKi-973, the results for COLO 829 are shown in FIG. 12A treated with MEKi-623 and 12B treated with MEKi-973, the results for SK23-MEL are shown in FIG. 19A treated with MEKi-623 and 19B treated with MEKi-973, and the results for IPC-298 are shown in FIG. 22A treated with MEKi-623 and 22B treated with MEKi-973.

ETBR surface protein = experiment: Surface ETBR protein in live melanoma cells, FACS; format: cell-based, human; conditions: 24 h
Protocol: as §1
(§4) To determine whether the observed increases in total ETBR protein level due to BRAFi treatment also results in an increase of ETBR surface protein levels, a fluorescence-activated cell sorting (FACS) analysis was performed. Cells were harvested in PBS with 2.5 mmol/L EDTA and washed in PBS buffer containing 1% FBS. All subsequent steps were carried out at 4° C. Cells were incubated for 1 hour with 3 μg/mL anti ETBR antibody Hu5E9v1, followed by anti-human IgG fluorescent detection reagent (A11013; Invitrogen). Cells were then analyzed with a FACS Calibur flow cytometer (BD Biosciences). The results for UACC-257X2.2 are shown in FIG. 4C, the results for A2058 are shown in FIG. 8C, and the results for COLO 829 are shown in FIG. 6C.
as §3
as §4, with “MEKi” for “BRAFi”, “performed as described above.” for “performed.”, “Biosciences).” for “Biosciences). The results for UACC-257X2.2 are shown in FIG. 4C, the results for A2058 are shown in FIG. 8C, and the results for COLO 829 are shown in FIG. 6C.”

ETBR transcript [2] = experiment: PD study, ETBR transcript in A2058 tumors, Taqman, normalized to Hprt1; format: in vivo, mice; conditions: MEKi-973 5 mpk and 10 mpk orally once a day for 3 days
Protocol: A2058 or COLO 829 tumors were grown to an average size of approximately 200 mm^3, whereupon animals were randomized into groups of 5-6 each. For the BRAFi PD study, an appropriate vehicle control (Klucel LF) or RG7204 at doses of 10 mpk or 30 mpk were administered twice a day for 3 days (FIG. 27A). For the MEKi PD study, an appropriate vehicle control or MEKi-973 at doses of 5 mpk and 10 mpk were administered orally once a day for 3 days (FIG. 27B). Flash frozen tumors harvested at end of study were homogenized and processed for RNA and/or protein. Taqman assays were set up using reagents from Applied Biosystems (ABI, Foster City, Calif.) and assayed using 7500 Real Time PCR machine and software from ABI. Primer-probe sets were designed with primers flanking a fluorogenic probe dual labeled with Reporter dye FAM and quencher dye TAMRA. ETBR transcript levels in the tumors were normalized against transcript levels of reference genes such as Hprt1 (hypoxanthine phosphoribosyltransferase 1) or GAPDH (glyceraldehyde 3 phosphate dehydrogenase) using primer and probe sets that were specific to the human homologs of these genes.

O=C(c1ccc(F)c(F)c1Nc1ccc(I)cc1F)N1CC(O)([C@@H]2CCCCN2)C1 [MEKi-973, (S)-(3,4-difluoro-2-((2-fluoro-4-iodophenyl)amino)phenyl)(3-hydroxy-3-(piperidin-2yl)azetidin-1-yl)methanone]
ETBR transcript vs untreated control cells (ETBR transcript [1]): appears to increase the ETBR transcripts | ETBR total protein level vs untreated control cells (ETBR total protein; A2058 cells (BRAF V600E)): appears to increase the ETBR total protein levels | ETBR total protein level vs untreated control cells (ETBR total protein; COLO 829 cells (BRAF V600E)): appears to increase the ETBR total protein levels | ETBR total protein level vs untreated control cells (ETBR total protein; IPC-298 cells (BRAF wild-type, RAS mutant)): appears to increase the ETBR total protein levels | ETBR total protein level vs untreated control cells (ETBR total protein; SK23-MEL cells (BRAF WT/RAS WT)): appears to increase the ETBR total protein levels | surface level of ETBR protein vs untreated control cells (ETBR surface protein; A2058 cells): appears to increase the surface levels of ETBR protein | surface level of ETBR protein vs untreated control cells (ETBR surface protein; COLO 829 cells): appears to increase the surface levels of ETBR protein | surface level of ETBR protein vs untreated control cells (ETBR surface protein; IPC-298 cells): appears to increase the surface levels of ETBR protein | surface level of ETBR protein vs untreated control cells (ETBR surface protein; SK23-MEL cells): appears to increase the surface levels of ETBR protein | ETBR mRNA in tumors vs control vehicle (ETBR transcript [2]): induces ETBR mRNA in vivo
